In ChEMBL document CHEMBL4808162, “Constraining the Side Chain of C-Terminal Amino Acids in Apelin-13 Greatly Increases Affinity, Modulates Signaling, and Improves the Pharmacokinetic Profile” (J Med Chem, 2021):

What was measured:
Apelin receptor [1] = molecular target: T1, Apelin receptor (Homo sapiens, UniProt P35414); experiment: Displacement of [125I] [NIe75,Tyr77]Pyr-apelin-13 from YFP-tagged human APJ receptor expressed in HEK293 cells incubated for 1 hr by gamma counting analysis; type: cell-based
T1 sequence (P35414 whole entry): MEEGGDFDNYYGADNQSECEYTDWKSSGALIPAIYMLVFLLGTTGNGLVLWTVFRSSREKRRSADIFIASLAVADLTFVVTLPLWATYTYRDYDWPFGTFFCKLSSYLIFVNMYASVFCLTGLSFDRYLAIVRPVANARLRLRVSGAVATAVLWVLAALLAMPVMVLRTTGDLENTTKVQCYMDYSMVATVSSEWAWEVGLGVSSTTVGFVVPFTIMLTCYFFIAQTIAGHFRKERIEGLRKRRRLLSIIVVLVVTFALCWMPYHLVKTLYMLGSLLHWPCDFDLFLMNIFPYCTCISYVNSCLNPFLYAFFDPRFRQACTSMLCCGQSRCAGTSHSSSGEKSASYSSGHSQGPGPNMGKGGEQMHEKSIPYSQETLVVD

Apelin receptor [2] = molecular target: T1, Apelin receptor; experiment: Agonist activity at human APJ receptor expressed in HEK293T cells co-expressing Galphai1 RlucII assessed as dissociation of Galphai1 from Gbetta/gamma subunit measured using coelenterazine luciferase substrate incubated for 5 mins by BRET assay; type: functional, cell-based, HEK293
Apelin receptor [3] = molecular target: T1, Apelin receptor; experiment: Agonist activity at human APJ receptor expressed in HEK293T cells co-expressing PDZ-Rho-Gef-RLucll and rGFP-CAAX assessed as induction of recruitment of Galpha12 to cell membrane using coelenterazine luciferase substrate incubated for 5 mins by BRET assay; type: functional, cell-based, HEK293
Apelin receptor [4] = molecular target: T1, Apelin receptor; experiment: Agonist activity at human APJ receptor expressed in HEK293 cells co-expressing Rlucll-beta-arrestin2 assessed as induction of beta-arrestin2 recruitment to receptor incubated for 30 mins by BRET assay; type: functional, cell-based

SMILES	Ki (Apelin receptor [1]; hek293) [nM]	EC50 (Apelin receptor [2]; hek293) [nM]	EC50 (Apelin receptor [3]; hek293) [nM]	EC50 (Apelin receptor [4]; hek293) [nM]	Ki (Apelin receptor [1]) [nM]	EC50 (Apelin receptor [2]) [nM]	EC50 (Apelin receptor [3]) [nM]	EC50 (Apelin receptor [4]) [nM]
CCCC[C@H](NC(=O)[C@@H]1CCCN1C(=O)CNC(=O)[C@H](CCCCN)NC(=O)[C@H](Cc1cnc[nH]1)NC(=O)[C@H](CO)NC(=O)[C@H](CC(C)C)NC(=O)[C@H](CCCNC(=N)N)NC(=O)[C@@H]1CCCN1C(=O)[C@H](CCCNC(=N)N)NC(=O)[C@@H]1CCC(=O)N1)C(=O)N1CCC[C@H]1C(=O)N[C@H](Cc1cccc(-c2ccccc2)c1)C(=O)O	0.31	1.4	24	47				
CCCC[C@H](NC(=O)[C@@H]1CCCN1C(=O)CNC(=O)[C@H](CCCCN)NC(=O)[C@H](Cc1cnc[nH]1)NC(=O)[C@H](CO)NC(=O)[C@H](CC(C)C)NC(=O)[C@H](CCCNC(=N)N)NC(=O)[C@@H]1CCCN1C(=O)[C@H](CCCNC(=N)N)NC(=O)[C@@H]1CCC(=O)N1)C(=O)N1CCC[C@H]1C(=O)N[C@H](C(=O)O)C(C)(C)c1ccccc1					0.36	2.4	67	69
CCCC[C@H](NC(=O)[C@@H]1CCCN1C(=O)CNC(=O)[C@H](CCCCN)NC(=O)[C@H](Cc1cnc[nH]1)NC(=O)[C@H](CO)NC(=O)[C@H](CC(C)C)NC(=O)[C@H](CCCNC(=N)N)NC(=O)[C@@H]1CCCN1C(=O)[C@H](CCCNC(=N)N)NC(=O)[C@@H]1CCC(=O)N1)C(=O)N1CCC[C@H]1C(=O)N[C@H](Cc1ccc(-c2ccccc2)cc1)C(=O)O	0.35	2.1	21	64				
CCCC[C@H](NC(=O)[C@@H]1CCCN1C(=O)CNC(=O)[C@H](CCCCN)NC(=O)[C@H](Cc1cnc[nH]1)NC(=O)[C@H](CO)NC(=O)[C@H](CC(C)C)NC(=O)[C@H](CCCNC(=N)N)NC(=O)[C@@H]1CCCN1C(=O)[C@H](CCCNC(=N)N)NC(=O)[C@@H]1CCC(=O)N1)C(=O)N1CC[C@H](c2ccccc2)[C@@H]1C(=O)N[C@@H](Cc1ccccc1)C(=O)O					4.2	17	48	454
CCCC[C@H](NC(=O)[C@@H]1CCCN1C(=O)CNC(=O)[C@H](CCCCN)NC(=O)[C@H](Cc1cnc[nH]1)NC(=O)[C@H](CO)NC(=O)[C@H](CC(C)C)NC(=O)[C@H](CCCNC(=N)N)NC(=O)[C@@H]1CCCN1C(=O)[C@H](CCCNC(=N)N)NC(=O)[C@@H]1CCC(=O)N1)C(=O)N1CCC[C@H]1C(=O)N[C@H](Cc1ccc(OCc2ccccc2)cc1)C(=O)O	0.02	0.5	11	14				
CCCC[C@H](NC(=O)[C@@H]1CCCN1C(=O)CNC(=O)[C@H](CCCCN)NC(=O)[C@H](Cc1cnc[nH]1)NC(=O)[C@H](CO)NC(=O)[C@H](CC(C)C)NC(=O)[C@H](CCCNC(=N)N)NC(=O)[C@@H]1CCCN1C(=O)[C@H](CCCNC(=N)N)NC(=O)[C@@H]1CCC(=O)N1)C(=O)N1CCC[C@H]1C(=O)N[C@@](C)(Cc1ccc(OCc2ccccc2)cc1)C(=O)O					1	19	11	571
CCCC[C@H](NC(=O)[C@@H]1CCCN1C(=O)CNC(=O)[C@H](CCCCN)NC(=O)[C@H](Cc1cnc[nH]1)NC(=O)[C@H](CO)NC(=O)[C@H](CC(C)C)NC(=O)[C@H](CCCNC(=N)N)NC(=O)[C@@H]1CCCN1C(=O)[C@H](CCCNC(=N)N)NC(=O)[C@@H]1CCC(=O)N1)C(=O)N1CCC[C@H]1C(=O)N1C[C@@H](OCc2ccccc2)C[C@@H]1C(=O)O					6.1	6.4	63	192
CCCC[C@H](NC(=O)[C@@H]1CCCN1C(=O)CNC(=O)[C@H](CCCCN)NC(=O)[C@H](Cc1cnc[nH]1)NC(=O)[C@H](CO)NC(=O)[C@H](CC(C)C)NC(=O)[C@H](CCCNC(=N)N)NC(=O)[C@@H]1CCCN1C(=O)[C@H](CCCNC(=N)N)NC(=O)[C@@H]1CCC(=O)N1)C(=O)N1CCC[C@H]1C(=O)N[C@H](Cc1ccc(OCc2ccccc2)c(C2CCCC2)c1)C(=O)O					0.41	5.7	53	69
CCCC[C@H](NC(=O)[C@@H]1CCCN1C(=O)CNC(=O)[C@H](CCCCN)NC(=O)[C@H](Cc1cnc[nH]1)NC(=O)[C@H](CO)NC(=O)[C@H](CC(C)C)NC(=O)[C@H](CCCNC(=N)N)NC(=O)[C@@H]1CCCN1C(=O)[C@H](CCCNC(=N)N)NC(=O)[C@@H]1CCC(=O)N1)C(=O)N1CCC[C@H]1C(=O)N[C@H]1Cc2c(ccc3ccccc23)CN(CC(=O)O)C1=O					1.7	6.4	74	221
